# Data from article PMC5442318, “Hundreds of dual-stage antimalarial molecules discovered by a functional gametocyte screen” (Nature Communications, 2017).
# pIC50: −log10 of the molar value. Where two headings read alike, the source gives them in different places.
# Experiments:
# [1] = system: P. falciparum stage V female gametocytes; assay: P. falciparum female gametocyte activation assay (Pf FGAA), 24 h or 48 h preincubation, Pfs25 expression readout; format: cell-based, Plasmodium falciparum NF54; conditions: P. falciparum female gametocytes, mean, read-out: Gametocytes mean Pf FGAA IC50
# Protocol: P. falciparum NF54 (originally isolated from an imported malaria case in the Netherlands in the 1980s; BEI Resources, cat. no. MRA-1000) asexual-stage culture was performed as described by Trager and Jensen[37]. Cultures synchronized at the ring stage were used to start gametocyte cultures (day 0) at 1% parasitaemia and 4% haematocrit in 200 ml final volume using culture bottles (Nalgene 3110-42, Thermo Scientific). Complete culture medium (RPMI 1640 supplemented with 25 mM HEPES, 50 μg ml^−1 hypoxanthine, 2 g l^−1 NaHCO3 and 10% pooled human male type A+ serum) was totally replaced daily for 14 days without fresh erythrocyte addition. Human serum was obtained from Interstate Blood Bank, A^+ serotype; no aspirin 2 h before drawing and no antimalarials 2 weeks before drawing. To ensure a stable temperature at 37 °C, which is crucial for gametocyte production and maturation, pre-warmed medium and a slide warmer (XH-2001, Premiere) were used. Under these conditions, parasitaemia reaches a peak of asexual stages on days 4–5, and the first gametocytes are differentiated in culture on day 6. Sexual-stage development was monitored microscopically by Giemsa-stained thin blood smears at day 7 (mainly asexual stages and stages I to III gametocytes) and day 14 (stages IV and V gametocytes).
# Cultures showing mainly stage V gametocytes were purified by differential sedimentation as previously reported. The gametocyte concentration was adjusted to plate 8,000 gametocytes per well (100 μl per well) in 384-well poly-D-lysine coated plates (781946, Greiner Bio-One) containing the compounds to test. […] Female gametocyte activation was then triggered by temperature drop and addition of xanthurenic acid (D120804, Sigma) as previously described. To detect female gametes, monoclonal anti-Pfs25 antibody[38] 4B7 (BEI Resources (formerly MR4), cat. no. MRA-315) conjugated to the Cy3 fluorochrome (GE Healthcare) was added to ookinete medium (RPMI 1640 supplemented with 25 mM HEPES, 50 μg ml^−1 hypoxanthine, 2 g l^−1 NaHCO3, 100 μM xanthurenic acid and 20% human serum) at a final concentration of 0.5 μg ml^−1. Activated cultures were then kept at 26 °C for 24 h protected from light, and image acquisition was performed in the Opera High-Content Screening System (PerkinElmer). Using × 10 air objective, five images per well were taken using 532 nm excitation. Images were analysed with a Columbus image data storage and analysis system (PerkinElmer) based on a script specifically designed for this assay that considers size, roundness and intensity of fluorescence of the female activated gametocytes.
# Compounds were dissolved in 100% DMSO and dispensed in the 384-well plates using an Echo-CRS liquid handler. Compounds were tested in 2–3 independent experiments. […] Based on that, Z′ factor was calculated for each plate and only those ones with values higher than 0.4 were considered acceptable for data analysis.
# Assay performance statistics, such as signal to background ratio, Z′ and robust 3 s.d. activity cut-off were calculated using templates in ActivityBase XE (IDBS, Guilford, Surrey, UK). Hit population analysis and visualization were conducted using Spotfire DecisionSite (Spotfire, Inc., Somerville, MA, USA). The pIC50 (−log IC50) values were obtained using the ActivityBase XE nonlinear regression function in the full curve analysis bundle.
# [2] = system: P. falciparum asexual blood stages; conditions: TCAMS asexual blood stage data; ref 1 (Gamo, F. J. et al., Nature 465, 305-310, 2010); read-out: Pf Asexual blood stages XC50; cited from earlier work
# HepG2 cells = assay: HepG2 cytotoxicity assay; format: cell-based; conditions: HepG2 cells; mean
# Protocol: After incubation, plates and CellTiter-Glo Reagent (G7571, Promega) were equilibrated at room temperature for 30 min before proceeding to develop the luminescent signal. Using a Multidrop combi dispenser, 25 μl per well of the signal developer were added to the plates and after 10 min at room temperature for stabilization, plates were read on the ViewLux system (Perkin Elmer).
# [3] = system: P. falciparum stages IV–V gametocytes; assay: Gametocytocidal ATP-depletion assay (gametocyte ATP bioluminescence); format: cell-based, Plasmodium falciparum
# Protocol: In parallel, the set of confirmed hits from the Pf FGAA screen was cross-compared in the gametocyte ATP-depletion assay, at 2 μM single concentration (Supplementary Data 1). This assay monitors ATP levels as surrogate of gametocyte viability.
# ‘Viability' of mature gametocytes was determined using the gametocyte ATP bioluminiscence assay. Briefly, stages IV–V gametocyte cultures were double-purified by differential sedimentation followed by magnetic isolation. Then, parasites (50 μl per well containing 12,500 gametocytes) were added to compound pre-dispensed 384-well plates (781091, Greiner Bio-One) and incubated at 37 °C for 48 h (3% O2, 5% CO2 and 92% N2). BacTiter-Glo kit (G8231, Promega) was used to determine the ATP levels of ‘live' parasites according to the manufacturer's instructions. After reagent addition (50 μl per well), luminescence of the plates was measured using a microplate reader (HTS counter Victor, Wallac).
Structure (SMILES),pIC50 [1],pIC50 [2],HepG2 cells mean TOX50 (HepG2 cells),Gametocytes mean ATP inhibition at 2µM [3],pIC50 ([1]; Plasmodium falciparum),"inhibition at 2 µM ([3]; Plasmodium falciparum, mean)"
CC(C)C1=CC(=NOS(=O)(=O)c2ccccc2)C=C(C(C)C)C1=O [TCMDC-124172],6.06,6.15,21.70 µM,65.50%,,
CCN1CCN(c2ccc(Nc3c4ccccc4nc4ccccc34)cc2)CC1 [TCMDC-124255],6.00,6.14,4.57 µM,12.43%,,
Cl.c1ccc2c(NCCCCCCCCCNc3c4ccccc4nc4ccccc34)c3ccccc3nc2c1 [TCMDC-124286],5.74,6.52,4.90 µM,51.90%,,
C=CCN(C(=O)c1ccc(Cl)c([N+](=O)[O-])c1)c1nc(-c2ccccc2)cs1 [TCMDC-124436],6.89,6.40,>100 µM,100.64%,,
CC(C)(C)Nc1cc(C2CC2)nc(-c2ccccn2)n1 [TCMDC-124453],7.00,6.17,>100 µM,81.87%,,
Cn1c(Sc2ncnc3sccc23)nc2ccccc21 [TCMDC-124514],5.90,6.72,>100 µM,17.03%,,
Cc1sc2ncnc(Sc3nnc(N)s3)c2c1C [TCMDC-124542],6.11,6.40,36.31 µM,30.31%,,
COc1ccc(OC)c(-c2cccc(-c3cccc(NC(=O)c4ccc([N+](=O)[O-])o4)c3)n2)c1 [TCMDC-124799],6.02,6.43,3.63 µM,25.78%,,
O=C(c1ccc([N+](=O)[O-])o1)N1CCC(Cc2ccc(C(F)(F)F)cc2)CC1 [TCMDC-124805],6.80,6.77,27.05 µM,93.11%,,
Cc1sc2nc(CN3CCCC3)nc(-n3c(NCCO)nc4ccccc43)c2c1C [TCMDC-124811],5.15,5.91,25.73 µM,42.91%,,
CCOc1ccc2nc3cc(NC(=O)c4ccco4)ccc3c(N)c2c1 [TCMDC-125004],5.34,6.10,25.15 µM,91.77%,,
Cc1ccccc1OCC(O)CNC1CCC(NCC(O)COc2ccccc2C)CC1 (stereo not drawn) [TCMDC-125142],5.95,5.92,4.07 µM,39.31%,,
CC(Nc1cc(-c2ccccn2)nc(-c2ccccn2)n1)c1ccccc1 (stereo not drawn) [TCMDC-125420],6.68,6.35,6.18 µM,86.62%,,
c1ccc(CNc2cc(-c3ccccn3)nc(-c3ccccn3)n2)cc1 [TCMDC-125421],6.49,6.52,13.04 µM,76.15%,,
Cc1c(Cl)cccc1N=C(S)NN=Cc1ccccn1 [TCMDC-125487],7.55,6.22,>100 µM,74.71%,,
Fc1ccc(NC(S)=NN=Cc2ccccn2)cc1 [TCMDC-125521],7.57,6.11,>100 µM,85.73%,,
SC(=Nc1ccc(Cl)c(Cl)c1)NN=Cc1ccccn1 [TCMDC-125522],7.10,6.11,3.47 µM,64.79%,,
CC[C@H]1CN2CCc3cc(OC)c(OC)cc3[C@@H]2C[C@@H]1C[C@H]1NCCc2cc(OC)c(OC)cc21 [TCMDC-125531],,6.68,9.77 µM,,5.56,56%
c1ccc2sc(Sc3ncnc4sccc34)nc2c1 [TCMDC-125539],6.85,6.14,>100 µM,69.68%,,
Fc1ccc2nc(Nc3nc(-c4ccccn4)cs3)sc2c1 [TCMDC-125540],7.27,6.25,58.31 µM,71.05%,,
Oc1c(C(Nc2ccccn2)c2ccc(Cl)cc2Cl)ccc2cccnc12 (stereo not drawn) [TCMDC-125559],5.94,6.05,12.74 µM,84.30%,,
O=C(Nc1cc(C(F)(F)F)cc(C(F)(F)F)c1)Nc1ccc(Cl)c(Cl)c1 [TCMDC-125592],5.84,6.62,3.07 µM,-6.96%,,
CCCC(N)C(=O)NC1CCN(c2c(F)c(N)c3c(=O)c(C(=O)O)cn4c3c2Oc2ccccc2-4)C1.Cl (stereo not drawn) [TCMDC-125701],5.94,6.44,1.61 µM,0.82%,,
ON=C(c1nc2ccccc2[nH]1)c1nc2ccccc2[nH]1 [TCMDC-125758],6.48,5.96,4.96 µM,89.28%,,
c1ccc(-c2nc(NC3CCCCC3)cc(C3CC3)n2)nc1 [TCMDC-125825],6.80,6.14,48.99 µM,85.03%,,
CC(C)(C)c1cc(NC2CC2)nc(-c2ccccn2)n1 [TCMDC-125826],6.92,6.14,>100 µM,84.45%,,
COc1ccc2nc3cc(Cl)ccc3c(N)c2c1.Cl [TCMDC-125835],6.17,6.77,1.57 µM,101.44%,,
CCC1CN2CCc3cc(OC)c(OC)cc3C2CC1CC1NCCc2cc(OC)c(OC)cc21 (stereo not drawn) [TCMDC-125849],5.74,6.82,2.24 µM,60.00%,,
COc1ccc(CCNCCCCCCNCCc2ccc(-c3ccccc3)cc2)cc1OC.Cl [TCMDC-131267],5.90,6.02,6.90 µM,51.20%,,
Br.Oc1ccc(CCNCCCCCCNCCc2ccc(-c3ccccc3)cc2)cc1O [TCMDC-131268],4.96,6.22,13.18 µM,64.17%,,
